Results from the NIST ThermoML archive (doi:10.1021/acs.jced.7b00035).
Where “and” joins values, the source holds several entries; their conditions need not be identical. Identical values can stand only once. ± gives the expanded uncertainty stated by the source.

Assays:
[1] = xn = mol fraction of the nth substance listed; details: 100 kPa, Liquid, Vibrating tube method
[2] = excess molar enthalpy (molar enthalpy of mixing); xn = mol fraction of the nth substance listed; details: 100 kPa, Liquid, Flow calorimetry

CC(=O)CC(C)C [4-methylpentan-2-one] + O
Details | excess molar enthalpy, [2] | mass density, [1]
288.15 K, x1 = 0.000573 | -0.00173 ± 0.000198 kcal/mol | 998.669 ± 0.037 kg/m3
288.15 K, x1 = 0.000574 | -0.00174 ± 0.000198 kcal/mol | 998.655 ± 0.037 kg/m3
288.15 K, x1 = 0.00086 | – | 998.405 ± 0.042 kg/m3 and 998.422 ± 0.091 kg/m3
288.15 K, x1 = 0.001146 | -0.00341 ± 0.000239 kcal/mol | 998.224 ± 0.048 kg/m3
288.15 K, x1 = 0.001147 | -0.00344 ± 0.000239 kcal/mol | 998.21 ± 0.038 kg/m3
288.15 K, x1 = 0.001432 | -0.00429 ± 0.000382 kcal/mol | 997.995 ± 0.057 kg/m3
288.15 K, x1 = 0.001434 | -0.00425 ± 0.000382 kcal/mol | 998.001 ± 0.057 kg/m3
288.15 K, x1 = 0.001718 | -0.00512 ± 0.000478 kcal/mol | 997.779 ± 0.086 kg/m3
288.15 K, x1 = 0.00172 | -0.00508 ± 0.000478 kcal/mol | 997.788 ± 0.086 kg/m3
288.15 K, x1 = 0.002004 | -0.00591 ± 0.000311 kcal/mol | 997.592 ± 0.25 kg/m3
288.15 K, x1 = 0.002006 | -0.00591 ± 0.000311 kcal/mol | 997.567 ± 0.25 kg/m3
298.15 K, x1 = 0.000574 | -0.00135 kcal/mol and -0.00134 kcal/mol | 996.572 ± 0.038 kg/m3 and 996.58 ± 0.038 kg/m3
298.15 K, x1 = 0.00086 | -0.002 ± 0.000201 kcal/mol | 996.345 ± 0.038 kg/m3
298.15 K, x1 = 0.000861 | -0.00203 ± 0.000201 kcal/mol | 996.319 ± 0.038 kg/m3
298.15 K, x1 = 0.001146 | -0.00269 ± 0.000263 kcal/mol | 996.114 ± 1.8 kg/m3
298.15 K, x1 = 0.001148 | -0.00271 ± 0.000239 kcal/mol | 996.078 ± 1.7 kg/m3
298.15 K, x1 = 0.001433 | -0.0033 ± 0.000287 kcal/mol | 995.875 ± 2.4 kg/m3
298.15 K, x1 = 0.001435 | -0.00335 ± 0.000287 kcal/mol | 995.871 ± 2.4 kg/m3
298.15 K, x1 = 0.001718 | -0.00394 ± 0.000287 kcal/mol | 995.624 ± 2 kg/m3
298.15 K, x1 = 0.001721 | -0.00397 ± 0.000263 kcal/mol | 995.64 ± 1.6 kg/m3
298.15 K, x1 = 0.002004 | -0.00459 ± 0.000406 kcal/mol | 995.417 ± 2.2 kg/m3
298.15 K, x1 = 0.002007 | -0.00455 ± 0.00043 kcal/mol | 995.402 ± 1.7 kg/m3
308.15 K, x1 = 0.000573 | -0.000968 ± 0.000194 kcal/mol | 993.534 ± 0.039 kg/m3 and 993.533 ± 0.039 kg/m3
308.15 K, x1 = 0.000859 | -0.00147 kcal/mol | 993.283 ± 0.039 kg/m3 and 993.282 ± 0.039 kg/m3
308.15 K, x1 = 0.001145 | -0.00193 kcal/mol and -0.00192 kcal/mol | 993.03 ± 0.04 kg/m3 and 993.053 ± 0.04 kg/m3
308.15 K, x1 = 0.001431 | -0.00239 kcal/mol and -0.00238 kcal/mol | 992.791 ± 0.041 kg/m3 and 992.795 ± 0.041 kg/m3
308.15 K, x1 = 0.001716 | -0.00285 ± 0.000222 kcal/mol | 992.542 ± 0.042 kg/m3
308.15 K, x1 = 0.001717 | -0.00288 ± 0.000222 kcal/mol | 992.525 ± 0.042 kg/m3
308.15 K, x1 = 0.002002 | -0.0033 ± 0.000234 kcal/mol | 992.3 ± 0.052 kg/m3
308.15 K, x1 = 0.002003 | -0.0033 ± 0.000234 kcal/mol | 992.285 ± 0.052 kg/m3
318.15 K, x1 = 0.000573 | -0.000982 kcal/mol and -0.000633 kcal/mol | –
318.15 K, x1 = 0.000859 | -0.00093 kcal/mol and -0.000918 kcal/mol | 989.411 ± 0.041 kg/m3 and 989.421 ± 0.041 kg/m3
318.15 K, x1 = 0.001145 | -0.00122 ± 0.000196 kcal/mol | 989.156 ± 0.041 kg/m3
318.15 K, x1 = 0.001146 | -0.00122 ± 0.000196 kcal/mol | 989.147 ± 0.041 kg/m3
318.15 K, x1 = 0.001431 | -0.00149 ± 0.000198 kcal/mol | 988.905 ± 0.042 kg/m3
318.15 K, x1 = 0.001432 | -0.00148 ± 0.000196 kcal/mol | 988.91 ± 0.042 kg/m3
318.15 K, x1 = 0.001717 | -0.00179 ± 0.000201 kcal/mol | 988.633 ± 0.043 kg/m3
318.15 K, x1 = 0.001718 | -0.00178 ± 0.000201 kcal/mol | 988.636 ± 0.043 kg/m3
318.15 K, x1 = 0.002003 | -0.00204 ± 0.000201 kcal/mol | 988.402 ± 0.044 kg/m3
318.15 K, x1 = 0.002004 | -0.00202 ± 0.000201 kcal/mol | 988.379 ± 0.044 kg/m3

CC(=O)C(C)C [3-methyl-2-butanone] + O
Details | excess molar enthalpy, [2] | mass density, [1]
288.15 K, x1 = 0.000837 | -0.0025 kcal/mol | 998.559 ± 0.034 kg/m3 and 998.558 ± 0.034 kg/m3
288.15 K, x1 = 0.001672 | -0.00495 kcal/mol and -0.00497 kcal/mol | 998.026 ± 0.036 kg/m3 and 998.025 ± 0.036 kg/m3
288.15 K, x1 = 0.002505 | -0.00739 ± 0.000263 kcal/mol | 997.502 ± 0.038 kg/m3
288.15 K, x1 = 0.002506 | -0.0074 ± 0.000263 kcal/mol | 997.502 ± 0.038 kg/m3
288.15 K, x1 = 0.003337 | -0.00974 ± 0.000335 kcal/mol | 996.996 ± 0.067 kg/m3
288.15 K, x1 = 0.003339 | -0.00976 ± 0.000335 kcal/mol | 996.993 ± 0.04 kg/m3
288.15 K, x1 = 0.004168 | -0.0121 ± 0.000359 kcal/mol | 996.494 ± 0.043 kg/m3
288.15 K, x1 = 0.004171 | -0.0121 ± 0.000359 kcal/mol | 996.488 ± 0.043 kg/m3
288.15 K, x1 = 0.004998 | -0.0145 ± 0.00043 kcal/mol | 995.988 ± 0.046 kg/m3
288.15 K, x1 = 0.005001 | -0.0144 ± 0.00043 kcal/mol | 996 ± 0.046 kg/m3
298.15 K, x1 = 0.000836 | -0.00207 kcal/mol | 996.47 ± 0.035 kg/m3
298.15 K, x1 = 0.001671 | -0.00411 ± 0.00022 kcal/mol | 995.897 ± 0.037 kg/m3
298.15 K, x1 = 0.001672 | -0.00411 ± 0.00022 kcal/mol | 995.899 ± 0.037 kg/m3
298.15 K, x1 = 0.002505 | -0.00612 kcal/mol and -0.00606 kcal/mol | 995.337 ± 0.039 kg/m3 and 995.348 ± 0.039 kg/m3
298.15 K, x1 = 0.003337 | -0.00802 kcal/mol and -0.00799 kcal/mol | 994.799 ± 0.042 kg/m3 and 994.805 ± 0.042 kg/m3
298.15 K, x1 = 0.004166 | -0.00989 ± 0.000335 kcal/mol | 994.261 ± 0.045 kg/m3
298.15 K, x1 = 0.004168 | -0.00994 ± 0.000335 kcal/mol | 994.254 ± 0.045 kg/m3
298.15 K, x1 = 0.004994 | -0.0118 ± 0.000359 kcal/mol | 993.729 ± 0.063 kg/m3
298.15 K, x1 = 0.004998 | -0.0118 ± 0.000359 kcal/mol | 993.722 ± 0.063 kg/m3
308.15 K, x1 = 0.000836 | -0.00164 ± 0.000198 kcal/mol | 993.424 ± 0.036 kg/m3
308.15 K, x1 = 0.000837 | -0.00163 ± 0.000198 kcal/mol | 993.426 ± 0.036 kg/m3
308.15 K, x1 = 0.001672 | -0.00322 kcal/mol and -0.00323 kcal/mol | 992.827 ± 0.038 kg/m3 and 992.824 ± 0.038 kg/m3
308.15 K, x1 = 0.002504 | -0.00478 ± 0.000229 kcal/mol | 992.235 ± 0.041 kg/m3
308.15 K, x1 = 0.002506 | -0.00482 ± 0.000229 kcal/mol | 992.224 ± 0.041 kg/m3
308.15 K, x1 = 0.003336 | -0.00632 ± 0.000263 kcal/mol | 991.647 ± 0.044 kg/m3
308.15 K, x1 = 0.00334 | -0.00634 ± 0.000263 kcal/mol | 991.646 ± 0.044 kg/m3
308.15 K, x1 = 0.004167 | -0.00783 ± 0.000287 kcal/mol | 991.064 ± 0.047 kg/m3
308.15 K, x1 = 0.004171 | -0.00781 ± 0.000287 kcal/mol | 991.067 ± 0.047 kg/m3
308.15 K, x1 = 0.005001 | -0.00926 ± 0.000311 kcal/mol | 990.494 ± 0.063 kg/m3
318.15 K, x1 = 0.000836 | -0.00121 kcal/mol | 989.576 ± 0.038 kg/m3 and 989.578 ± 0.038 kg/m3
318.15 K, x1 = 0.00167 | -0.00239 ± 0.000206 kcal/mol | 988.947 ± 0.04 kg/m3
318.15 K, x1 = 0.001671 | -0.00239 ± 0.000206 kcal/mol | 988.945 ± 0.04 kg/m3
318.15 K, x1 = 0.002338 | -0.0033 ± 0.000213 kcal/mol | 988.447 ± 0.042 kg/m3
318.15 K, x1 = 0.002505 | -0.00353 ± 0.000215 kcal/mol | 988.318 ± 0.043 kg/m3
318.15 K, x1 = 0.003336 | -0.00465 ± 0.000225 kcal/mol | 987.702 ± 0.053 kg/m3
318.15 K, x1 = 0.003337 | -0.00465 ± 0.000227 kcal/mol | 987.696 ± 0.046 kg/m3
318.15 K, x1 = 0.004167 | -0.00571 ± 0.000263 kcal/mol | 987.091 ± 0.07 kg/m3
318.15 K, x1 = 0.004168 | -0.00573 ± 0.000239 kcal/mol | 987.083 ± 0.05 kg/m3
318.15 K, x1 = 0.004997 | -0.00677 ± 0.000263 kcal/mol | 986.477 ± 0.054 kg/m3
318.15 K, x1 = 0.004998 | -0.00677 ± 0.000263 kcal/mol | 986.481 ± 0.053 kg/m3
